Test results from PMC6562543 (Marine Drugs, 2019).

Assays:
[1] = system: mice; design: species or system Kunming mice; settings: mouse, in vivo, iv
[2] = in vivo; cited from earlier work
[3] = system: mice; design: species or system Kunming mice (ICR mice for intranasal treatment); settings: mouse, in vivo
[4] = rat, in vivo, cited from earlier work
[5] = system: mice; settings: mouse, in vivo; SEM

Question: For `CSCC[C@@H]1NC(=O)[C@H](CC(C)C)NC(=O)[C@H](CCCNC(=N)N)NC(=O)[C@H](CO)NC(=O)[C@@H]2CSSC[C@@H]3NC(=O)[C@H](CO)NC(=O)CNC(=O)[C@H]([C@@H](C)O)NC(=O)[C@H](CSSC[C@H](N)C(=O)N[C@@H](CCCCN)C(=O)NCC(=O)N[C@@H](CCCCN)C(=O)NCC(=O)N[C@@H](C)C(=O)N[C@@H](CCCCN)C(=O)N2)NC(=O)[C@H](CSSC[C@@H](C(N)=O)NC(=O)[C@H](CCCCN)NC(=O)CNC(=O)[C@H](CO)NC(=O)[C@H](CCCNC(=N)N)NC3=O)NC(=O)[C@H](CC(=O)O)NC(=O)[C@H](Cc2ccc(O)cc2)NC1=O` [MVIIA, ω-Conotoxin MVIIA], which “effect on writhing numbers” value [1] is on record?
Answer: failed to attenuate writhing numbers

Question: What about the “antinociceptive potency relative to intrathecal morphine” value [2] of the same molecule?
Answer: 100 times

Question: And the “potency relative to morphine” value [2]?
Answer: 100 times

Question: And the “time after which the effect disappeared” value [3]?
Answer: ≤ 4 h

Question: What about the “time of maximal antinociceptive effect” value [3] of the same molecule?
Answer: 1 h

Question: What about the antinociceptive effect ([3]; iv) of the same molecule?
Answer: no effect

Question: And the “AUC0-6 in CSF” value ([4]; iv)?
Answer: 4.98 ± 0.97 µg·min/mL

Question: What about the “Cmax in CSF” value ([4]; iv) of the same molecule?
Answer: 37.78 ± 6.8 ng/mL

Question: And the “Tmax in CSF” value ([4]; iv)?
Answer: ~ 2 h

Question: And the “bioavailability in CSF following intranasal versus intravenous administration” value [4]?
Answer: two fold greater

Question: And the “stay time on rotarod” value [5]?
Answer: 74.5 ± 20.28 s
